Experimental data: article PMC6364417, “Kinase inhibitor library screening identifies synergistic drug combinations effective in sensitive and resistant melanoma cells” (Journal of Experimental & Clinical Cancer Research : CR, 2019)

Legend:
Assay in all cases: Kinase inhibitor library screening, PrestoBlue cell viability, 1 or 10 μM, 72 h
IGR37 cells (parental) = conditions: IGR37 Parental, 72 h
Method: (§1) After 72 h of treatment, cell viability was assessed using the PrestoBlue Cell Viability Reagent (ThermoFisher Scientific). Measurements were performed with the CLARIOstar Monochromator microplate reader (BMG Labtech).
(§2) Kinase inhibitor library screening. […] Each cell line was treated in its sensitive form (parental), and also as 2 resistant derivatives, which were made resistant to either Vemurafenib (XP) or Dabrafenib (GP). Drugs were added at 2 different concentrations, 1 and 10 μM, for 72 h and cell viability was assessed using the PrestoBlue Cell Viability assay. Results are depicted as % viability compared to untreated cells. Each cell line was analyzed at least in duplicate. […] (XLSX 95 kb)

[1] = test system: A375-XP cells (Vemurafenib-resistant); conditions: A375 XP, 72 h
Method: as §1, §2

501Mel cells (parental) = conditions: 501Mel Parental, 72 h
Method: as §1, §2

[2] = test system: IGR37-GP cells (Dabrafenib-resistant); conditions: IGR37 GP, 72 h
Method: as §1, §2

[3] = test system: IGR37-XP cells (Vemurafenib-resistant); conditions: IGR37 XP, 72 h
Method: as §1, §2

[4] = test system: A375-GP cells (Dabrafenib-resistant); conditions: A375 GP, 72 h
Method: as §1, §2

[5] = test system: 501Mel-GP cells (Dabrafenib-resistant); conditions: 501Mel GP, 72 h
Method: as §1, §2

A375 cells (parental) = conditions: A375 Parental, 72 h
Method: as §1, §2

[6] = test system: 501Mel-XP cells (Vemurafenib-resistant); conditions: 501Mel XP, 72 h
Method: as §1, §2

Structure (SMILES) | Cell viability in kinase inhibitor library screening, IGR37 Parental, 1μΜ (IGR37 cells (parental); 1μΜ, in %) | Cell viability in kinase inhibitor library screening, IGR37 Parental, 10μΜ (IGR37 cells (parental); 10μΜ, in %) | Cell viability in kinase inhibitor library screening, A375 XP, 1μΜ ([1]; 1μΜ) | Cell viability in kinase inhibitor library screening, A375 XP, 10μΜ ([1]; 10μΜ) | Cell viability in kinase inhibitor library screening, 501Mel Parental, 1μΜ (501Mel cells (parental); 1μΜ, in %) | Cell viability in kinase inhibitor library screening, 501Mel Parental, 10μΜ (501Mel cells (parental); 10μΜ, in %) | Cell viability in kinase inhibitor library screening, IGR37 GP, 10μΜ ([2]; 10μΜ) [%] | cell viability (kinase inhibitor library screening) (IGR37 cells (parental); 1μΜ) [%] | cell viability (kinase inhibitor library screening) ([1]; 10μΜ) [%] | cell viability (kinase inhibitor library screening) (501Mel cells (parental); 1μΜ) [%] | cell viability (kinase inhibitor library screening) (501Mel cells (parental); 10μΜ) [%] | cell viability (kinase inhibitor library screening) ([2]; 1μΜ) [%] | cell viability (kinase inhibitor library screening) ([2]; 10μΜ) [%] | cell viability (kinase inhibitor library screening) ([3]; 1μΜ) [%] | cell viability (kinase inhibitor library screening) ([3]; 10μΜ) [%] | cell viability (kinase inhibitor library screening) ([4]; 10μΜ) [%] | cell viability (kinase inhibitor library screening) ([5]; 10μΜ) [%] | cell viability (kinase inhibitor library screening) (A375 cells (parental); 10μΜ) [%] | cell viability (kinase inhibitor library screening) ([6]; 1μΜ) [%] | cell viability (kinase inhibitor library screening) ([6]; 10μΜ) [%] | further results
Nc1cc(C(F)(F)F)c(-c2cc(N3CCOCC3)nc(N3CCOCC3)n2)cn1 [BKM120 (Buparlisib)] | 91.7 | 30.3 | 70.4 | 10.0 | 71.1 | 10.8 | 20.9 |  |  |  |  |  |  |  |  |  |  |  |  |  | Cell viability in kinase inhibitor library screening, IGR37 GP, 1μΜ ([2]; 1μΜ, in %): 82.3; Cell viability in kinase inhibitor library screening, IGR37 XP, 10μΜ ([3]; 10μΜ): 7.4%; Cell viability in kinase inhibitor library screening, IGR37 XP, 1μΜ ([3]; 1μΜ, in %): 78.7; Cell viability in kinase inhibitor library screening, A375 GP, 1μΜ ([4]; 1μΜ): 59.6; Cell viability in kinase inhibitor library screening, A375 GP, 10μΜ ([4]; 10μΜ): 7.7; Cell viability in kinase inhibitor library screening, 501Mel GP, 1μΜ ([5]; 1μΜ, in %): 60.8; Cell viability in kinase inhibitor library screening, 501Mel GP, 10μΜ ([5]; 10μΜ, in %): 9.6; Cell viability in kinase inhibitor library screening, A375 Parental, 10μΜ (A375 cells (parental); 10μΜ): 9.8; Cell viability in kinase inhibitor library screening, A375 Parental, 1μΜ (A375 cells (parental); 1μΜ): 67.0; Cell viability in kinase inhibitor library screening, 501Mel XP, 1μΜ ([6]; 1μΜ, in %): 54.8; Cell viability in kinase inhibitor library screening, 501Mel XP, 10μΜ ([6]; 10μΜ, in %): 3.6
CCOc1ccn(-c2ccc(F)cc2)c(=O)c1C(=O)Nc1ccc(Oc2ccnc(N)c2Cl)c(F)c1 [BMS 777607] |  |  |  |  |  |  |  | 97.6 | 66.5 | 88.2 | 68.4 | 87.2 | 82.2 | 91.2 | 46.6 | 45.4 | 53.2 | 42.4 | 72.2 | 37.4 | cell viability (kinase inhibitor library screening) (IGR37 cells (parental); 10μΜ): 81.6%; cell viability (kinase inhibitor library screening) (A375 cells (parental); 1μΜ): 99.9%
Nc1nccc(Oc2ccc(NC(=O)c3c[nH]cc(-c4ccc(F)cc4)c3=O)cc2F)c1Cl [BMS 794833] |  |  |  |  |  |  |  | 106.3 | 96.9 | 95.9 | 83.2 | 94.1 | 90.1 | 103.7 | 63.5 | 85.8 | 70.5 | 63.8 | 91.8 | 52.9 | cell viability (kinase inhibitor library screening) (IGR37 cells (parental); 10μΜ): 97.3%; cell viability (kinase inhibitor library screening) ([1]; 1μΜ): 104.8%; cell viability (kinase inhibitor library screening) ([5]; 1μΜ): 90.0%
CCCCOc1c(C(=O)c2c(F)cc(C)cc2F)c[nH]c2nncc1-2 [BMS-265246] |  |  |  |  |  |  |  | 91.7 | 71.7 | 92.4 | 77.7 | 90.7 | 83.4 | 85.9 | 48.1 | 40.3 | 52.8 | 49.0 | 87.1 | 32.9 | cell viability (kinase inhibitor library screening) (IGR37 cells (parental); 10μΜ): 91.8%; cell viability (kinase inhibitor library screening) ([1]; 1μΜ): 94.5%; cell viability (kinase inhibitor library screening) ([4]; 1μΜ): 93.5%; cell viability (kinase inhibitor library screening) ([5]; 1μΜ): 94.2%; cell viability (kinase inhibitor library screening) (A375 cells (parental); 1μΜ): 91.4%
Cc1c(NC(=O)OC[C@@H]2COCCN2)cn2ncnc(Nc3ccc4c(cnn4Cc4cccc(F)c4)c3)c12 [BMS-599626 (AC480)] |  |  |  |  |  |  |  |  |  |  |  |  |  |  |  |  |  |  |  |  | cell viability, IGR37 Parental, 1μΜ (IGR37 cells (parental); 1μΜ, in %): 109.0; cell viability, IGR37 Parental, 10μΜ (IGR37 cells (parental); 10μΜ, in %): 92.5; cell viability, A375 XP, 1μΜ ([1]; 1μΜ, in %): 107.8; cell viability, A375 XP, 10μΜ ([1]; 10μΜ, in %): 91.0; cell viability, 501Mel Parental, 1μΜ (501Mel cells (parental); 1μΜ, in %): 99.1; cell viability, 501Mel Parental, 10μΜ (501Mel cells (parental); 10μΜ, in %): 87.7; cell viability, IGR37 GP, 10μΜ ([2]; 10μΜ): 75%; cell viability, IGR37 GP, 1μΜ ([2]; 1μΜ, in %): 95.5; cell viability, IGR37 XP, 10μΜ ([3]; 10μΜ): 48.2%; cell viability, IGR37 XP, 1μΜ ([3]; 1μΜ, in %): 96.7; cell viability, A375 GP, 10μΜ ([4]; 10μΜ, in %): 84.2; cell viability, 501Mel GP, 1μΜ ([5]; 1μΜ, in %): 106.6; cell viability, 501Mel GP, 10μΜ ([5]; 10μΜ, in %): 91.5; cell viability, A375 Parental, 1μΜ (A375 cells (parental); 1μΜ, in %): 103.3; cell viability, A375 Parental, 10μΜ (A375 cells (parental); 10μΜ, in %): 84.6; cell viability, 501Mel XP, 1μΜ ([6]; 1μΜ, in %): 93.0; cell viability, 501Mel XP, 10μΜ ([6]; 10μΜ, in %): 61.8
CC(C)c1cnn2c(NCc3ccccc3)cc(NCCCCCCN)nc12.Cl [BS-181 HCl] |  |  |  |  |  |  |  | 98.6 | 92.4 | 97.6 | 87.4 | 92.7 | 81.4 | 97.6 | 59.8 | 84.9 | 87.7 | 91.6 | 98.4 | 55.9 | cell viability (kinase inhibitor library screening) ([1]; 1μΜ): 112.1%; cell viability (kinase inhibitor library screening) ([4]; 1μΜ): 105.9%; cell viability (kinase inhibitor library screening) ([5]; 1μΜ): 108.6%
O=C(NCCCNc1nc(Nc2cccc(NC(=O)N3CCCC3)c2)ncc1I)c1cccs1 [BX-795] | 97.9 | 56.4 | 93.4 | 48.3 | 92.8 | 82.7 | 15.1 |  |  |  |  |  |  |  |  |  |  |  |  |  | Cell viability in kinase inhibitor library screening, IGR37 GP, 1μΜ ([2]; 1μΜ, in %): 85.8; Cell viability in kinase inhibitor library screening, IGR37 XP, 10μΜ ([3]; 10μΜ): 7.6%; Cell viability in kinase inhibitor library screening, IGR37 XP, 1μΜ ([3]; 1μΜ, in %): 93.9; Cell viability in kinase inhibitor library screening, A375 GP, 1μΜ ([4]; 1μΜ): 86.6; Cell viability in kinase inhibitor library screening, A375 GP, 10μΜ ([4]; 10μΜ): 43.6; Cell viability in kinase inhibitor library screening, 501Mel GP, 1μΜ ([5]; 1μΜ, in %): 97.1; Cell viability in kinase inhibitor library screening, 501Mel GP, 10μΜ ([5]; 10μΜ, in %): 64.9; Cell viability in kinase inhibitor library screening, A375 Parental, 10μΜ (A375 cells (parental); 10μΜ): 38.1; Cell viability in kinase inhibitor library screening, A375 Parental, 1μΜ (A375 cells (parental); 1μΜ): 87.7; Cell viability in kinase inhibitor library screening, 501Mel XP, 1μΜ ([6]; 1μΜ, in %): 89.4; Cell viability in kinase inhibitor library screening, 501Mel XP, 10μΜ ([6]; 10μΜ, in %): 39.9
O=C(Nc1cccc(Nc2ncc(Br)c(NCCc3cnc[nH]3)n2)c1)N1CCCC1 [BX-912] | 91.9 | 65.1 | 88.9 | 36.6 | 93.6 | 63.6 | 55.1 |  |  |  |  |  |  |  |  |  |  |  |  |  | Cell viability in kinase inhibitor library screening, IGR37 XP, 10μΜ ([3]; 10μΜ): 16.7%; Cell viability in kinase inhibitor library screening, IGR37 XP, 1μΜ ([3]; 1μΜ, in %): 94.7; Cell viability in kinase inhibitor library screening, A375 GP, 1μΜ ([4]; 1μΜ): 87.6; Cell viability in kinase inhibitor library screening, A375 GP, 10μΜ ([4]; 10μΜ): 38.0; Cell viability in kinase inhibitor library screening, 501Mel GP, 1μΜ ([5]; 1μΜ, in %): 99.2; Cell viability in kinase inhibitor library screening, 501Mel GP, 10μΜ ([5]; 10μΜ, in %): 59.6; Cell viability in kinase inhibitor library screening, A375 Parental, 10μΜ (A375 cells (parental); 10μΜ): 34.9; Cell viability in kinase inhibitor library screening, A375 Parental, 1μΜ (A375 cells (parental); 1μΜ): 92.0; Cell viability in kinase inhibitor library screening, 501Mel XP, 1μΜ ([6]; 1μΜ, in %): 89.5; Cell viability in kinase inhibitor library screening, 501Mel XP, 10μΜ ([6]; 10μΜ, in %): 48.6
